Broadly, the Ki is a measure of affinity in units of concentration, obtained from inhibition or displacement. Low readings indicate tighter binding, high ones weaker binding. The term Km denotes the substrate concentration at which the rate is half of its maximum.

Series [1] addresses T1, Solute carrier organic anion transporter family member 1A1 (Rattus norvegicus, UniProt P46720).
T1 sequence (P46720 whole entry): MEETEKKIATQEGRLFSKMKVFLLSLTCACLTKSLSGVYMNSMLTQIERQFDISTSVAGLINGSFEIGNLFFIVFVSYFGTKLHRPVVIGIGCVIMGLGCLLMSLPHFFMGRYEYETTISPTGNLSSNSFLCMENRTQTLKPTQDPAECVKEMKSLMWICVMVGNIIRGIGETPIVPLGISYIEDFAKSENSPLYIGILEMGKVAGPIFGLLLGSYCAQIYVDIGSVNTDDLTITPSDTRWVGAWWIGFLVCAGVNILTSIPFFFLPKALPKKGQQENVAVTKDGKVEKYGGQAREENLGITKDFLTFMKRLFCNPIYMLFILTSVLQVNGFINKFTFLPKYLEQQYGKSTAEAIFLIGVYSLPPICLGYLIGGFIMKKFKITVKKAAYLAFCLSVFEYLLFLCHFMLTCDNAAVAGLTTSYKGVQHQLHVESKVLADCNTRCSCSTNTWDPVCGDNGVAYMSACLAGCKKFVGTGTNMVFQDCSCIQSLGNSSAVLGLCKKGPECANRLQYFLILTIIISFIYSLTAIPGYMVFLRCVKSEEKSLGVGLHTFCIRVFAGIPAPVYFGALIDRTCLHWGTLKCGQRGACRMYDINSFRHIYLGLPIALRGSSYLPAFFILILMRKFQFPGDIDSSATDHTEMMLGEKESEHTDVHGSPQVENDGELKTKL
Briefly: TP_TRANSPORTER: inhibition of E217betaG uptake in Oatp1-expressing HeLa cells. In kind it is functional, cell-based.

Substrate in series [2]: C[C@]12CC[C@@H]3c4ccc(O)cc4CC[C@H]3[C@@H]1CC[C@@H]2O[C@@H]1O[C@H](C(=O)O)[C@@H](O)[C@H](O)[C@H]1O
Description: TP_TRANSPORTER: uptake in Oatp1-expressing HeLa cells. Format: functional, cell-based.

On to `C[C@]12CC[C@@H]3c4ccc(O)cc4CC[C@H]3[C@@H]1CC[C@@]2(O)CC(=O)O`, for which the Ki in series [1] is greater than 200 µM.

`C[C@]12CC[C@H]3[C@@H](CCC4=CC(=O)CC[C@@]43C)[C@@H]1CC[C@@H]2O` [TESTOSTERONE]: in series [1], the inhibition constant Ki was 5.4 µM. Same read-out and setting: the same measure for `C[C@]12CC[C@H]3[C@@H](CCC4=CC(=O)CC[C@@]43C)[C@@H]1CC[C@@H]2O[C@@H]1O[C@H](C(=O)O)[C@@H](O)[C@H](O)[C@H]1O`: 3.8 µM. The same measure, in the same setting: the same measure for `CC(=O)O[C@@H]1CC[C@@]2(C)[C@@H](CC[C@@H]3[C@@H]2CC[C@]2(C)C(=O)CC[C@@H]32)C1` [ANDROSTERONE ACETATE]: 76.2 µM; for `C[C@]12CC[C@@H]3c4ccc(O)cc4CC[C@H]3[C@@H]1CC[C@@H]2O` [ESTRADIOL]: 4.7 µM. The same measure, in the same setting: the same measure for `C[C@]12CC[C@@H]3c4ccc(O[C@@H]5O[C@H](C(=O)O)[C@@H](O)[C@H](O)[C@H]5O)cc4CC[C@H]3[C@@H]1CC[C@@H]2O`: 9.7 µM; for `C[C@]12CC[C@@H](O)C[C@@H]1CC[C@@H]1[C@@H]2CC[C@]2(C)C(=O)CC[C@@H]12` [ANDROSTERONE]: 10.6 µM; for `C[C@]12CC[C@@H]3c4ccc(O)cc4CC[C@H]3[C@@H]1CCC2=O` [ESTRONE]: 15.7 µM. Take `C[C@]12C[C@H](O)[C@H]3[C@@H](CCC4=CC(=O)CC[C@@]43C)[C@@H]1CC[C@@H]2C(=O)COS(=O)(=O)O`: the affinity in series [1] corresponds to a Ki of 1.6 µM. Still for that read-out and setting: the figure for `C[C@]12CC[C@@H](OS(=O)(=O)O)C[C@@H]1CC[C@@H]1[C@@H]2CC[C@]2(C)C(=O)CC[C@@H]12` is 2.4 µM; for `C[C@]12C[C@H](O)[C@H]3[C@@H](CCC4=CC(=O)CC[C@@]43C)[C@@H]1CC[C@@H]2C(=O)CO` [CORTICOSTERONE] it is 5.3 µM; for `C[C@]12CC[C@@H]3c4ccc(OS(=O)(=O)O)cc4CC[C@H]3[C@@H]1CCC2=O` [ESTRONE SULFURIC ACID] it is 1.3 µM. The same measure, in the same setting: the same measure for `C[C@]12CC[C@@H]3c4ccc(O)cc4CC[C@H]3[C@@H]1C[C@@H](O)[C@@H]2O` [ESTRIOL]: 9.8 µM; for `C#C[C@]1(OS(=O)(=O)O)CC[C@H]2[C@@H]3CCc4cc(O)ccc4[C@H]3CC[C@@]21C`: 1.3 µM; for `C[C@]12CC[C@@H]3c4ccc(OS(=O)(=O)O)cc4CC[C@H]3[C@@H]1CC[C@@H]2O`: 1.1 µM.

B1: Solute carrier organic anion transporter family member 1A1 (Rattus norvegicus) (protein)
chain: MEETEKKIATQEGRLFSKMKVFLLSLTCACLTKSLSGVYMNSMLTQIERQFDISTSVAGLINGSFEIGNLFFIVFVSYFGTKLHRPVVIGIGCVIMGLGCLLMSLPHFFMGRYEYETTISPTGNLSSNSFLCMENRTQTLKPTQDPAECVKEMKSLMWICVMVGNIIRGIGETPIVPLGISYIEDFAKSENSPLYIGILEMGKVAGPIFGLLLGSYCAQIYVDIGSVNTDDLTITPSDTRWVGAWWIGFLVCAGVNILTSIPFFFLPKALPKKGQQENVAVTKDGKVEKYGGQAREENLGITKDFLTFMKRLFCNPIYMLFILTSVLQVNGFINKFTFLPKYLEQQYGKSTAEAIFLIGVYSLPPICLGYLIGGFIMKKFKITVKKAAYLAFCLSVFEYLLFLCHFMLTCDNAAVAGLTTSYKGVQHQLHVESKVLADCNTRCSCSTNTWDPVCGDNGVAYMSACLAGCKKFVGTGTNMVFQDCSCIQSLGNSSAVLGLCKKGPECANRLQYFLILTIIISFIYSLTAIPGYMVFLRCVKSEEKSLGVGLHTFCIRVFAGIPAPVYFGALIDRTCLHWGTLKCGQRGACRMYDINSFRHIYLGLPIALRGSSYLPAFFILILMRKFQFPGDIDSSATDHTEMMLGEKESEHTDVHGSPQVENDGELKTKL
As for B1, the Km in series [2] came out at 3.2 µM.

The record behind these values is ChEMBL document CHEMBL2074098, “Estradiol 17 beta-D-glucuronide is a high-affinity substrate for oatp organic anion transporter” (Am J Physiol, 1996).
